Read-outs that look alike come from different tables or passages of the source.
Assays:
[1] = target: T1, β-secretase(BACE) (Homo sapiens, UniProt P56817); assay: BACE FS1% Inhibition Assay; assay type: biochemical; settings: FS1 substrate; for inhibition at 10 µM: 10 μM test compound, read-out: % Inhibition (FS) 10 μM
T1 construct: purchased Panvera
How it was run: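 Human BACE (4 μg/mL working solution) preincubated 20 min at room temperature with compound, then FS1 substrate (300 μg/mL working solution) added and incubated 1 h at room temperature. Percent inhibition calculated at each compound concentration against blank and vehicle controls.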

[2] = target: T1, β-secretase(BACE); assay: BACE Assay-2 (FS1 substrate, IC50 and Ki); assay type: biochemical; settings: procedure of Example 159, FS1 substrate; read-out: Ki μM (159)
Experimental: The FS1-substrate stock solution was prepared in DMSO as a 10 mg/mL solution. The FS1-substrate working solution was prepared by diluting the 10 mg/mL stock solution with substrate assay buffer to a final concentration of 300 μg/mL. The β-secretase (BACE) working solution was prepared by diluting a 0.83 mg/mL BACE stock solution with enzyme assay buffer to a final concentration of 4 μg/mL.
Test compounds were dissolved in DMSO at 10 mM.
The procedure for this assay was as follows: 15 μL of BACE working solution was pipetted into each well of a 96-well plate. To each well was then pipetted 2 μL of test compound at the selected concentration. Test compound and BACE were then mixed with a pipettor and incubated for 20 min at room temperature. To each well was then added 10 μL of the FS1 substrate working solution.
The procedure for the positive control was as follows: 15 μL of BACE working solution was pipetted into each well to be used as a positive control. To each well was then pipetted 2 μL of vehicle. Vehicle and BACE were then mixed with a pipettor and incubated for 20 min at room temperature. To each well was then added 10 μL of the FS1 substrate working solution.
For test compounds, measured at multiple concentrations, the measured T0 and T60 values were used to calculate an IC50 value using Graphpad Software (or PIR). For test compounds, Ki inhibition was determined as follows: For each compound concentration and positive control, rate of cleavage of substrate (Vi, where i=compound concentration in μM) was determined as Δ Fluorescence/Δ time (min). Cleavage rates (Vi) were plotted as a function of inhibitor concentration in μM [I]. The Ki was then determined by fitting the following equation to the graph of [I] vs Vi Y=aVmax/(50+24*(1+X/Ki)),

[3] = 0.3 μM test compound, read-out: % Inhibition (FS)
[4] = 1 μM test compound, read-out: % Inhibition (FS)
[5] = 3 μM test compound, read-out: % Inhibition (FS)
[6] = 0.3 μM test compound, read-out: % Inhibition (FS) 0.3 μM
[7] = 1 μM test compound, read-out: % Inhibition (FS) 1 μM
[8] = 3 μM test compound, read-out: % Inhibition (FS) 3 μM

T1 sequence (P56817 46-501): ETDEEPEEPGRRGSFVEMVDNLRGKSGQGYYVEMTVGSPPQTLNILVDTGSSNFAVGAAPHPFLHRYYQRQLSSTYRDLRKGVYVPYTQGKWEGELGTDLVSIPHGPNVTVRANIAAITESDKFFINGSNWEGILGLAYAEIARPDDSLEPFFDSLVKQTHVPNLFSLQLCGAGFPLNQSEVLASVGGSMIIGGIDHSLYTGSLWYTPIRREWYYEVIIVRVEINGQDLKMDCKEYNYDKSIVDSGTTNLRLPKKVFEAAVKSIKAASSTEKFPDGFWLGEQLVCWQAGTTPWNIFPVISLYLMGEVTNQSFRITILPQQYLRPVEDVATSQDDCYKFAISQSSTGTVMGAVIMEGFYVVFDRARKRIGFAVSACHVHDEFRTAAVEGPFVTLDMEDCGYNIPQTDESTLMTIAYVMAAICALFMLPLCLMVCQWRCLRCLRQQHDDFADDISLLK

COC(=O)[C@H]1CC[C@@H](N(CCO)C(=O)CC[C@@H](C2CCCCC2)N2Cc3cc(Oc4ccccc4)ccc3N=C2N)CC1 [Compound 762]
inhibition at 0.3 µM [1, 3]: 74%
inhibition at 1 µM [1, 4]: 102%
inhibition at 3 µM [1, 5]: 113%
Ki [2]: 0.111 µM

COc1ccccc1-c1ccc2c(c1)CN([C@@H](CCC(=O)N(C)CCC#N)C1CCCCC1)C(N)=N2 [Compound 720]
inhibition at 0.3 µM [1, 3]: 72%
inhibition at 1 µM [1, 4]: 93%
inhibition at 3 µM [1, 5]: 138%
Ki [2]: 0.3 µM

NC1=Nc2ccc(-c3cccc(Cl)c3)cc2CN1CCNC(=O)C1CCCCC1 [Compound 625]
inhibition at 0.3 µM [1, 6]: < 30%
inhibition at 1 µM [1, 7]: 54%
inhibition at 3 µM [1, 8]: 95%
Ki [2]: 0.27 µM

NC1=Nc2ccc(-c3ccccc3Cl)cc2CN1CCNC(=O)C1CCCCC1 [Compound 536]
inhibition at 0.3 µM [1, 6]: 61%
inhibition at 1 µM [1, 7]: 83%
inhibition at 3 µM [1, 8]: 118%
Ki [2]: 0.086 µM

COC1CCCC(C(=O)NCCN2Cc3cc(-c4ccccc4Cl)ccc3N=C2N)C1 (stereo not drawn) [Compound 692]
inhibition at 0.3 µM [1, 3]: 46%
inhibition at 1 µM [1, 4]: 90%
inhibition at 3 µM [1, 5]: 116%
Ki [2]: 0.13 µM

CC(C)(C)OC[C@@H](NC(=O)CC[C@@H](C1CCOCC1)N1Cc2cc(Oc3ccccc3)ccc2N=C1N)C(=O)O [Compound 774, 2-[4-(2-Amino-6-phenoxy-4H-quinazolin-3-yl)-4S-(tetrahydro-pyran-4-yl)-butyrylamino]-3R-tert-butoxy-propionic acid]
inhibition at 0.3 µM [1, 3]: 122%
inhibition at 1 µM [1, 4]: 120%
inhibition at 3 µM [1, 5]: 124%
Ki [2]: 0.003 µM

CN(CCc1ccccc1)C(=O)CC[C@@H](C1CCCCC1)N1Cc2cc(-c3ccccc3F)ccc2N=C1N [Compound 727]
% Inhibition (FS) ([1]; 0.3 μM test compound): 46%
% Inhibition (FS) ([1]; 1 μM test compound): 80%
% Inhibition (FS) ([1]; 3 μM test compound): 137%
Ki [2]: 0.43 µM

Cc1cc(CN(C)C(=O)CC[C@@H](C2CCCCC2)N2Cc3cc(-c4ccccc4F)ccc3N=C2N)on1 [Compound 723]
inhibition at 0.3 µM [1, 3]: 47%
inhibition at 1 µM [1, 4]: 63%
inhibition at 3 µM [1, 5]: 111%
Ki [2]: 0.23 µM

NC1=Nc2ccc(Oc3ccccc3)cc2CN1[C@@H](CCC(=O)N[C@@H](CO)C(=O)O)C1CCOCC1 [Compound 771]
inhibition at 0.3 µM [1, 3]: 46%
inhibition at 1 µM [1, 4]: 79%
inhibition at 3 µM [1, 5]: 105%
Ki [2]: 0.173 µM

CN(C(=O)CC[C@@H](C1CCCCC1)N1Cc2cc(Oc3ccccc3)ccc2N=C1N)C1CCOCC1 [Compound 638]
inhibition at 0.3 µM [1, 6]: 74%
inhibition at 1 µM [1, 7]: 101%
inhibition at 3 µM [1, 8]: 116%
Ki [2]: 0.23 µM

CN(C(=O)CCC(C1CCCCC1)N1Cc2cc(Oc3ccccc3)ccc2N=C1N)C1CCC(O)CC1 (stereo not drawn) [Compound 712]
inhibition at 0.3 µM [1, 3]: 39%
inhibition at 1 µM [1, 4]: 104%
inhibition at 3 µM [1, 5]: 134%
Ki [2]: 0.1 µM

Cc1ccccc1-c1ccc2c(c1)CN(Cc1cccc(C(=O)N(C)C3CCCCC3)c1)C(N)=N2 [Compound 261]
inhibition at 0.3 µM [1, 6]: 51%
inhibition at 1 µM [1, 7]: 87%
inhibition at 3 µM [1, 8]: 110%
Ki [2]: 0.42 µM

COc1ccccc1-c1ccc2c(c1)CN(C(CCC(=O)N(C)C1CCCCC1)C1CCCCC1)C(N)=N2 (single isomer, unassigned) [Compound 530]
inhibition at 0.3 µM [1, 6]: < 30%
inhibition at 1 µM [1, 7]: 80%
inhibition at 3 µM [1, 8]: 118%
Ki [2]: 0.13 µM

COc1ccccc1C(=O)NCCN1Cc2cc(Oc3ccccc3)ccc2N=C1N [Compound 216]
inhibition at 0.3 µM [1, 6]: < 30%
inhibition at 1 µM [1, 7]: 45%
inhibition at 3 µM [1, 8]: 91%
Ki [2]: 0.52 µM

CN(C(=O)c1ccnc(CN2Cc3cc(Oc4ccccc4)ccc3N=C2N)c1)C1CCCCC1 [Compound 508, 2-(2-Amino-6-phenoxy-4H-quinazolin-3-ylmethyl)-N-cyclohexyl-N-methyl-isonicotinamide]
inhibition at 0.3 µM [1, 6]: 31%
inhibition at 1 µM [1, 7]: 74%
inhibition at 3 µM [1, 8]: 113%
Ki [2]: 0.15 µM

COc1ccccc1-c1ccc2c(c1)CN(CCC(=O)NC1CCCCC1)C(N)=N2 [Compound 610]
inhibition at 0.3 µM [1, 6]: 75%
inhibition at 1 µM [1, 7]: 106%
inhibition at 3 µM [1, 8]: 119%
Ki [2]: 0.076 µM

CCOC(=O)C1CCC(N(C)C(=O)CCC(C2CCOCC2)N2Cc3cc(Oc4ccccc4)ccc3N=C2N)CC1 (stereo not drawn) [Compound 742]
inhibition at 0.3 µM [1, 3]: 17%
inhibition at 1 µM [1, 4]: 63%
inhibition at 3 µM [1, 5]: 101%
Ki [2]: 0.168 µM

CN(C(=O)c1ccc(CN2Cc3cc(Oc4ccccc4)ccc3N=C2N)o1)C1CCCCC1 [Compound 424, 5-(2-Amino-6-phenoxy-4H-quinazolin-3-ylmethyl)-furan-2-carboxylic acid cyclohexyl-methyl-amide]
inhibition at 0.3 µM [1, 6]: < 30%
inhibition at 1 µM [1, 7]: 50%
inhibition at 3 µM [1, 8]: 94%
Ki [2]: 0.4 µM

CC(C)[C@H](CNC(=O)C1CCCCC1)N1Cc2cc(Oc3ccccc3)ccc2N=C1N [Compound 561]
inhibition at 0.3 µM [1, 6]: 114%
inhibition at 1 µM [1, 7]: 118%
inhibition at 3 µM [1, 8]: 125%
Ki [2]: 0.016 µM

COC(=O)[C@H](COCc1ccccc1)N(C)C(=O)CC[C@@H](C1CCOCC1)N1Cc2cc(Oc3ccccc3)ccc2N=C1N [Compound 786]
inhibition at 0.3 µM [1, 3]: 97%
inhibition at 1 µM [1, 4]: 105%
inhibition at 3 µM [1, 5]: 114%
Ki [2]: 0.101 µM

NC1=Nc2ccc(Oc3ccccc3)cc2CN1[C@@H](CCC(=O)N[C@H](CO)C(=O)O)C1CCOCC1 [Compound 773, 2-[4-(2-Amino-6-phenoxy-4H-quinazolin-3-yl)-4S-(tetrahydro-pyran-4-yl)-butyrylamino]-3R-hydroxy-propionic acid]
inhibition at 0.3 µM [1, 3]: 102%
inhibition at 1 µM [1, 4]: 111%
inhibition at 3 µM [1, 5]: 119%
Ki [2]: 0.028 µM

CN(C(=O)CCC(C1CCOCC1)N1Cc2cc(Oc3ccccc3)ccc2N=C1N)C1CCCCC1 (stereo not drawn) [Compound 619]
inhibition at 0.3 µM [1, 6]: 119%
inhibition at 1 µM [1, 7]: 118%
inhibition at 3 µM [1, 8]: 125%
Ki [2]: 0.011 µM

Cc1cccc(C)c1-c1ccc2c(c1)CN(Cc1cccc(C(=O)N(C)C3CCCCC3)c1)C(N)=N2 [Compound 262]
inhibition at 0.3 µM [1, 6]: 39%
inhibition at 1 µM [1, 7]: 63%
inhibition at 3 µM [1, 8]: 95%
Ki [2]: 0.66 µM

CN(C(=O)CC[C@@H](C1CCC2(CC1)OCCO2)N1Cc2cc(Oc3ccccc3)ccc2N=C1N)C1CCCCC1 [Compound 730, S-enantiomer of 4-(2-Amino-6-phenoxy-4H-quinazolin-3-yl)-N-cyclohexyl-4-(1,4-dioxa-spiro[4.5]dec-8-yl)-N-methyl-butyramide]
inhibition at 0.3 µM [1, 3]: 93%
inhibition at 1 µM [1, 4]: 109%
inhibition at 3 µM [1, 5]: 114%
Ki [2]: 0.054 µM

NC1=Nc2ccc(-c3ccccc3)cc2CN1CCNC(=O)C1CCCCC1 [Compound 515]
inhibition at 0.3 µM [1, 6]: 41%
inhibition at 1 µM [1, 7]: 66%
inhibition at 3 µM [1, 8]: 110%
Ki [2]: 0.13 µM

CC(C)[C@@H](CCC(=O)N(C)C1CCCCC1)N1Cc2cc(Oc3ccccc3)ccc2N=C1N [Compound 444]
inhibition at 0.3 µM [1, 6]: < 30%
inhibition at 1 µM [1, 7]: < 30%
inhibition at 3 µM [1, 8]: 30%
Ki [2]: 0.58 µM

COc1ccccc1-c1ccc2c(c1)CN([C@@H](CCC(=O)N(C)CCc1ccccc1)C1CCCCC1)C(N)=N2 [Compound 721, 4-[2-Amino-6-(2-methoxy-phenyl)-4H-quinazolin-3-yl]-4-(S)-cyclohexyl-N-methyl-N-phenethyl-butyramide]
inhibition at 0.3 µM [1, 3]: 60%
inhibition at 1 µM [1, 4]: 66%
inhibition at 3 µM [1, 5]: 127%
Ki [2]: 0.22 µM

COC(=O)[C@H]1CC[C@@H](N(C)C(=O)CC[C@@H](C2CCOCC2)N2Cc3cc(Oc4ccccc4)ccc3N=C2N)CC1 [Compound 744]
inhibition at 0.3 µM [1, 3]: 91%
inhibition at 1 µM [1, 4]: 108%
inhibition at 3 µM [1, 5]: 112%
Ki [2]: 0.031 µM

CN(C(=O)CCC(C1CCCCC1)N1Cc2cc(Oc3ccccc3)ccc2N=C1N)C1CCCC(C(=O)O)C1 (stereo not drawn) [Compound 776]
inhibition at 0.3 µM [1, 3]: 41%
inhibition at 1 µM [1, 4]: 95%
inhibition at 3 µM [1, 5]: 117%
Ki [2]: 0.107 µM

CN(C(=O)CCC(c1ccccc1)N1Cc2cc(Oc3ccccc3)ccc2N=C1N)C1CCCCC1 (stereo not drawn) [Compound 151]
inhibition at 3 µM [1, 8]: 79%
inhibition at 10 µM [1]: 104%
Ki [2]: 0.23 µM

Cc1cccc(-c2ccc3c(c2)CN(CCNC(=O)C2CCCCC2)C(N)=N3)c1 [Compound 627]
inhibition at 0.3 µM [1, 6]: 39%
inhibition at 1 µM [1, 7]: 75%
inhibition at 3 µM [1, 8]: 105%
Ki [2]: 0.16 µM

CCCS(=O)(=O)NCCN1Cc2cc(Oc3ccccc3)ccc2N=C1N [Compound 134]
inhibition at 3 µM [1, 8]: 70%
inhibition at 10 µM [1]: 104%
Ki [2]: 0.37 µM
